Measured values from patent publication US11964973B2 (priority 2019, dated 2024).
pEC50, pIC50: −log10 of the molar value. Where two headings read alike, the source gives them in different places. One block for each compound: values may come before it.

Assays:
DGKα = DGKα (Homo sapiens (Human), UniProt P23743); experiment: biochemical; assay type: biochemical
human DGKζ = human DGKζ (Homo sapiens (Human), UniProt Q13574); experiment: biochemical; assay type: biochemical; conditions: liposome (LIPGLO) assay
Chain of human DGKζ (Q13574 whole entry, looked up): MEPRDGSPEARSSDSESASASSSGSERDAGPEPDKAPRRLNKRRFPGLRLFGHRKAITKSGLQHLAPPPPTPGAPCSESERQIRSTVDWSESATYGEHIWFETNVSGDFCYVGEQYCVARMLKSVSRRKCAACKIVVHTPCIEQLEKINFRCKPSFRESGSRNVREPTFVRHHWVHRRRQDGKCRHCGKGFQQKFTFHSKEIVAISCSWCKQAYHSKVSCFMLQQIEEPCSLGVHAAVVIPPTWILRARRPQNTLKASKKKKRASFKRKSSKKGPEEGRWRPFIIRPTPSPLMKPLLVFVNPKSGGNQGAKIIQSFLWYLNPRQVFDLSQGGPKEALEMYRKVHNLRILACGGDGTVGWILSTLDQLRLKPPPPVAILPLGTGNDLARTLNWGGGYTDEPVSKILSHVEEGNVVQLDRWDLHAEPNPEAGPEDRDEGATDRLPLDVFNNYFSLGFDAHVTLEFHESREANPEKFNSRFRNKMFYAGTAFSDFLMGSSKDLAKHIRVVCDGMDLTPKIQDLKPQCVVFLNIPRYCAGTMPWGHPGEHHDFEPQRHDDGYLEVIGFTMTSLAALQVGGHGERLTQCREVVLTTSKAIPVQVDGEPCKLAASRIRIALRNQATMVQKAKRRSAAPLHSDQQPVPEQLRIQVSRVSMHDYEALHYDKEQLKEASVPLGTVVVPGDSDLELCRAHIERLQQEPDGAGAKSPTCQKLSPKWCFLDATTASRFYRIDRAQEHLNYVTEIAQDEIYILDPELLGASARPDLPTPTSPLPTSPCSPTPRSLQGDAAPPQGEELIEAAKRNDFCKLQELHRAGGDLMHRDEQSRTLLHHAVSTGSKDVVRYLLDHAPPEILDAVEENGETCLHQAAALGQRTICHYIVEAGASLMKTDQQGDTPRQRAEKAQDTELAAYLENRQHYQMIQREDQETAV

[1] = test system: Human venous whole blood (IFN-γ); experiment: Human whole blood IFN-γ assay; assay type: cell-based
Method: Assay 10: Human Whole Blood IFN-γ Assay
Human venous whole blood (22.5 μL per well), obtained from healthy donors, was pre-treated with compounds for one hour at 37° C. in a humidified 95% air/5% CO2 incubator. The blood was stimulated with 2.5 μL anti-human CD3 and anti-CD28 mAb at a final concentration of 1 μg/mL each for 24 hours at 37° C. IFN-γ in the supernatants was measured using AlphLISA kit (Cat #AL217).

[2] = test system: human venous whole blood, CD8 positive population (pERK); experiment: DGK human whole blood pERK assay; assay type: cell-based; conditions: for pEC50: human whole blood pERK, read-out: DGK HWB; for pIC50: read-out: DGK HWB pERK IC50
How it was run: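 Read-out is the pERK-positive fraction of CD8+ cells measured by flow cytometry. Donor venous blood (heparin) saw compound for one hour at 37° C before a 15-minute anti-CD3 challenge (1 μg/mL final) with cross-linking anti-mouse IgG.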

[3] = liposome (LIPGLO) assay, read-out: DGKα LIPGLO IC50
[4] = Table A, liposome (LIPGLO) assay, read-out: DGKα
[5] = human whole blood, anti-CD3 plus anti-CD28, 24 hours, read-out: INFg Whole Blood Normalized Agonist EC50
[6] = human whole blood IFN-γ, read-out: INFg Whole Blood
[7] = Homo sapiens, 24 h, human whole blood, anti-CD3 plus anti-CD28, 24 hours, read-out: INFg Whole Blood Normalized Agonist EC50
[8] = human whole blood, CD8 positive population
[9] = Homo sapiens, human whole blood IFN-γ, read-out: INFg Whole Blood

Chain of DGKα (P23743 whole entry, looked up): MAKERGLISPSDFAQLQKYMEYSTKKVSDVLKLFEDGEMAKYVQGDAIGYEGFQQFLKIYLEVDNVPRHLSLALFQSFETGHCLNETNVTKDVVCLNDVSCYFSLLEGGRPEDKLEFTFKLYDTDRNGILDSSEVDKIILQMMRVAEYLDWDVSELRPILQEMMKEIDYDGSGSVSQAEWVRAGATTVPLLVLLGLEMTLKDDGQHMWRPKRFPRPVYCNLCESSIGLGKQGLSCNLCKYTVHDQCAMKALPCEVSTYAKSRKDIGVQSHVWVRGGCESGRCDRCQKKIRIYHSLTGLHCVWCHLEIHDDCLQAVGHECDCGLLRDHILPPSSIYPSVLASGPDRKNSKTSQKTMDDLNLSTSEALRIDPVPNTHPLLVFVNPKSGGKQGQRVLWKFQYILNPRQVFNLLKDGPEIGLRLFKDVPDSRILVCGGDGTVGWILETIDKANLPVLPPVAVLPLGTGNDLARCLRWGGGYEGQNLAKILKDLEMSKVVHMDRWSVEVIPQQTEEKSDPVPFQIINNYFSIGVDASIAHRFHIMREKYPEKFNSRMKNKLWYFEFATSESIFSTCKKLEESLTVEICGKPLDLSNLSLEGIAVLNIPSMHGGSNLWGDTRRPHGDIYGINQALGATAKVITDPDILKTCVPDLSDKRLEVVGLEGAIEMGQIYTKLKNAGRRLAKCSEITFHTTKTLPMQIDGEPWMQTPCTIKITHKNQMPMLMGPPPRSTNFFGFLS

SMILES: C[C@@H]1CN(c2cc(=O)n(C)c3ccc(C#N)nc23)CC[C@@H]1Oc1cccc(C2CC2)c1 [Example 180, 8-((3R,4S)-4-(3-cyclopropylphenoxy)-3-methylpiperidin-1-yl)-5-methyl-6-oxo-5,6-dihydro-1,5-naphthyridine-2-carbonitrile]
pIC50 (DGKα; [3]): 7.35
pIC50 (human DGKζ; read-out: DGKζ LIPGLO IC50): 6.00

SMILES: CC[C@@H]1CN(c2cc(=O)n(C)c3ccc(C#N)nc23)CC[C@H]1Oc1cccc(C(C)C)c1 (racemic) [Example 137, 8-((3R,4R)-3-ethyl-4-(3-isopropylphenoxy)piperidin-1-yl)-5-methyl-6-oxo-5,6-dihydro-1,5-naphthyridine-2-carbonitrile]
pIC50 (DGKα; [3]): 7.44
pIC50 (human DGKζ; read-out: DGKζ LIPGLO IC50): 6.04

SMILES: COc1cc(F)ccc1OC1CCN(c2c(C#N)c(=O)n(C)c3ccc(Cl)nc23)CC1 [Example 36, 6-chloro-4-(4-(4-fluoro-2-methoxyphenoxy)piperidin-1-yl)-1-methyl-2-oxo-1,2-dihydro-1,5-naphthyridine-3-carbonitrile]
pIC50 (DGKα; [3]): 5.80
pIC50 (human DGKζ; read-out: DGKζ LIPGLO IC50): 4.49

pIC50 (DGKα; [3]): 5.77
pIC50 (human DGKζ; read-out: DGKζ LIPGLO IC50): 5.96
SMILES: CC[C@@H]1CN(c2cc(=O)n(C)c3ccc(C#N)nc23)CC[C@H]1Oc1cccc(OC(F)(F)F)c1 (single isomer, unassigned) [Example 162]

SMILES: CCC(C)(C)c1ccc(O[C@@H]2CCN(c3c(C#N)c(=O)n(C)c4ccc(C#N)nc34)C[C@H]2C)cc1 (single isomer, unassigned) [Example 230, 5-methyl-8-(trans-3-methyl-4-(4-(tert-pentyl)phenoxy)piperidin-1-yl)-6-oxo-5,6-dihydro-1,5-naphthyridine-2,7-dicarbonitrile (rel)]
pIC50 (DGKα; [4]): 5.48
pIC50 (human DGKζ; Table A, read-out: DGKζ): ≤ 3.60

SMILES: C[C@@H]1CN(c2cc(=O)n(C)c3ccc(C#N)nc23)CC[C@@H]1Oc1ccc(OC(C)(C)C)cc1 (single isomer, unassigned) [Example 173]
pIC50 (DGKα; [3]): 6.13
pEC50 [1, 5]: 5.96

SMILES: CC[C@@H]1CN(c2cc(=O)n(C)c3ccc(C#N)nc23)CC[C@H]1Oc1ccc(OC(C)C)cn1 (single isomer, unassigned) [Example 194]
pIC50 (human DGKζ; Table A, read-out: DGKζ): 5.74
pEC50 [1, 6]: 5.74
pEC50 [2]: 5.52

pIC50 (DGKα; [4]): 6.46
pIC50 (human DGKζ; Table A, read-out: DGKζ): 5.74
SMILES: CCc1cnc(O[C@H]2CCN(c3cc(=O)n(C)c4ccc(C#N)nc34)C[C@H]2C)nc1 [Example 221, 8-((3R,4S)-4-((5-ethylpyrimidin-2-yl)oxy)-3-methylpiperidin-1-yl)-5-methyl-6-oxo-5,6-dihydro-1,5-naphthyridine-2-carbonitrile]

pIC50 (DGKα; [3]): 7.96
pIC50 (human DGKζ; read-out: DGKζ LIPGLO IC50): 5.37
SMILES: C[C@@H]1CN(c2cc(=O)n(C)c3ccc(C#N)nc23)CC[C@H]1Oc1cccc2c1OCCCO2 [Example 132, 8-((3R,4R)-4-((3,4-dihydro-2H-benzo[b][1,4]dioxepin-6-yl)oxy)-3-methylpiperidin-1-yl)-5-methyl-6-oxo-5,6-dihydro-1,5-naphthyridine-2-carbonitrile]

SMILES: C[C@@H]1CN(c2cc(=O)n(C)c3ccc(C#N)nc23)CC[C@@H]1Oc1ccc(OC(C)(C)C)cc1 (single isomer, unassigned) [Example 174]
pIC50 (DGKα; read-out: DGKα LIPGLO IC50): 5.80
pEC50 [1, 5]: 5.44

SMILES: CC[C@@H]1CN(c2cc(=O)n(C)c3ccc(C#N)nc23)CC[C@H]1Oc1cccc(C(F)(F)F)c1 [Example 140, 8-((3R,4R)-3-ethyl-4-(3-(trifluoromethyl)phenoxy)piperidin-1-yl)-5-methyl-6-oxo-5,6-dihydro-1,5-naphthyridine-2-carbonitrile]
pIC50 (DGKα; [3]): 6.89
pEC50 [1, 7]: 5.92

SMILES: C[C@@H]1CN(c2cc(=O)n(C)c3ccc(C#N)nc23)CC[C@H]1Oc1ccc(OC(C)(C)C)cc1 [Example 87, 8-((3R,4R)-4-(4-(tert-butoxy)phenoxy)-3-methylpiperidin-1-yl)-5-methyl-6-oxo-5,6-dihydro-1,5-naphthyridine-2-carbonitrile]
pIC50 (DGKα; [3]): 7.30
pEC50 [1, 5]: 5.70

SMILES: CC[C@@H]1CN(c2cc(=O)n(C)c3ccc(C#N)nc23)CC[C@@H]1Oc1cccc(C(C)C)c1 [Example 164, 8-((3R,4S)-3-ethyl-4-(3-isopropylphenoxy)piperidin-1-yl)-5-methyl-6-oxo-5,6-dihydro-1,5-naphthyridine-2-carbonitrile]
pEC50 ([1]; Homo sapiens, 24 h, read-out: INFg Whole Blood Normalized Agonist EC50, human whole blood, anti-CD3 plus anti-CD28, 24 hours): 6.10
pIC50 ([2]; Homo sapiens, CD8 positive): 5.29

pIC50 (DGKα; [3]): 7.38
pIC50 (human DGKζ; read-out: DGKζ LIPGLO IC50): 6.44
SMILES: CC[C@@H]1CN(c2cc(=O)n(C)c3ccc(C#N)nc23)CC[C@H]1Oc1cccc(OC(F)(F)F)c1 (single isomer, unassigned) [Example 163]

SMILES: CC(C)c1ccc(O[C@H]2CCN(c3cc(=O)n(C)c4ccc(C#N)nc34)C[C@H]2C)nc1 (single isomer, unassigned) [Example 207]
pEC50 [1, 6]: 5.89
pEC50 [2]: 4.92

SMILES: Cn1c(=O)cc(N2CCC(Oc3ccc(C(F)(F)F)cn3)CC2)c2nc(C#N)ccc21 [Example 77, 5-methyl-6-oxo-8-(4-((5-(trifluoromethyl)pyridin-2-yl)oxy)piperidin-1-yl)-5,6-dihydro-1,5-naphthyridine-2-carbonitrile]
pIC50 (DGKα; [3]): 5.52
pIC50 (human DGKζ; read-out: DGKζ LIPGLO IC50): 5.52

SMILES: CC[C@@H]1CN(c2cc(=O)n(C)c3ccc(C#N)nc23)CC[C@H]1Oc1ccc(C(C)C)cc1 (single isomer, unassigned) [Example 144]
pEC50 [1, 5]: 6.10
pIC50 [2, 8]: 6.06

SMILES: C[C@@H]1CN(c2cc(=O)n(C)c3ccc(C#N)nc23)CC[C@@H]1Oc1cccc(C2CC2)c1 [Example 181, 8-((3R,4S)-4-(3-cyclopropylphenoxy)-3-methylpiperidin-1-yl)-5-methyl-6-oxo-5,6-dihydro-1,5-naphthyridine-2-carbonitrile]
pIC50 (DGKα; [3]): 7.21
pIC50 (human DGKζ; read-out: DGKζ LIPGLO IC50): 5.85

pIC50 (DGKα; [3]): 6.13
pIC50 (human DGKζ; read-out: DGKζ LIPGLO IC50): 4.42
SMILES: Cn1c(=O)cc(N2CCC(Oc3ccc(C4CCCCC4)cc3)CC2)c2nc(C#N)ccc21 [Example 63, 8-(4-(4-cyclohexylphenoxy)piperidin-1-yl)-5-methyl-6-oxo-5,6-dihydro-1,5-naphthyridine-2-carbonitrile]

SMILES: CC(C)Oc1ccc(O[C@@H]2CCN(c3cc(=O)n(C)c4ccc(C#N)nc34)C[C@H]2C)nc1 (single isomer, unassigned) [Example 200]
pEC50 [1, 9]: 5.82
pEC50 ([2]; Homo sapiens, CD8 positive): 5.48

SMILES: C[C@@H]1CN(c2cc(=O)n(C)c3ccc(C#N)nc23)CC[C@@H]1Oc1ccc(C(C)(C)C)cc1 (racemic) [Example 175, 8-((3R,4S)-4-(4-(tert-butyl)phenoxy)-3-methylpiperidin-1-yl)-5-methyl-6-oxo-5,6-dihydro-1,5-naphthyridine-2-carbonitrile]
pEC50 [1, 7]: 5.85
pIC50 [2, 8]: 6.10

SMILES: CCO[C@@H]1CN(c2cc(=O)n(C)c3ccc(C#N)nc23)CC[C@H]1Oc1cccc(C(F)(F)F)c1 [Example 263, 8-((3R,4R)-3-ethoxy-4-(3-(trifluoromethyl)phenoxy)piperidin-1-yl)-5-methyl-6-oxo-5,6-dihydro-1,5-naphthyridine-2-carbonitrile]
pEC50 [1, 6]: 6.74
pEC50 ([2]; Homo sapiens, CD8 positive): 6.70

SMILES: C[C@@H]1CN(c2cc(=O)n(C)c3ccc(C#N)nc23)CC[C@@H]1Oc1ccc(C(F)F)cn1 (single isomer, unassigned) [Example 209]
pEC50 [1, 9]: 5.74
pEC50 ([2]; Homo sapiens, CD8 positive): 4.74

SMILES: CCC(C)(C)c1ccc(O[C@@H]2CCN(c3c(C#N)c(=O)n(C)c4ccc(C#N)nc34)C[C@H]2C)cc1 (racemic) [Example 229, (+/−) 5-methyl-8-(trans-3-methyl-4-(4-(tert-pentyl)phenoxy)piperidin-1-yl)-6-oxo-5,6-dihydro-1,5-naphthyridine-2,7-dicarbonitrile]
pIC50 (DGKα; [4]): 6.55
pIC50 (human DGKζ; Table A, read-out: DGKζ): ≤ 3.60

SMILES: C[C@@H]1CN(c2cc(=O)n(C)c3ccc(C#N)nc23)CC[C@H]1Oc1ccc(OC(C)(C)C)cc1 [Example 86, 8-((3R,4R)-4-(4-(tert-butoxy)phenoxy)-3-methylpiperidin-1-yl)-5-methyl-6-oxo-5,6-dihydro-1,5-naphthyridine-2-carbonitrile]
pIC50 (DGKα; read-out: DGKα LIPGLO IC50): 6.14
pEC50 [1, 5]: 6.16

SMILES: CC[C@@H]1CN(c2cc(=O)n(C)c3ccc(C#N)nc23)CC[C@H]1Oc1ccc(OC(C)C)cn1 (single isomer, unassigned) [Example 193]
pIC50 (human DGKζ; Table A, read-out: DGKζ): 5.66
pEC50 [1, 6]: 6.43
pEC50 [2]: 6.40

SMILES: C[C@@H]1CN(c2cc(=O)n(C)c3ccc(C#N)nc23)CC[C@@H]1Oc1ccc(C(F)F)cn1 (single isomer, unassigned) [Example 210]
pEC50 [1, 6]: 5.92
pEC50 [2]: 4.89

SMILES: C[C@@H]1CN(c2cc(=O)n(C)c3ccc(C#N)nc23)CC[C@@H]1Oc1ccc(OC(C)(C)C)cc1 [Example 172, 8-((3R,4S)-4-(4-(tert-butoxy)phenoxy)-3-methylpiperidin-1-yl)-5-methyl-6-oxo-5,6-dihydro-1,5-naphthyridine-2-carbonitrile]
pIC50 (DGKα; read-out: DGKα LIPGLO IC50): 6.21
pEC50 [1, 7]: 5.82

SMILES: C[C@@H]1CN(c2cc(=O)n(C)c3ccc(C#N)nc23)CC[C@H]1Oc1ccc(F)c(F)c1 (single isomer, unassigned) [Example 104]
pEC50 [1, 7]: 5.74
pIC50 [2, 8]: 5.96
